We go through five compounds from paper PMC7970304, “The Effects of Apelin and Elabela Ligands on Apelin Receptor Distinct Signaling Profiles” (Frontiers in Pharmacology, 2021).

No end group written: not given here.

One assay concerns the target T1, APJ (Apelin receptor) (Homo sapiens, UniProt P35414).
T1 sequence (P35414 1-380): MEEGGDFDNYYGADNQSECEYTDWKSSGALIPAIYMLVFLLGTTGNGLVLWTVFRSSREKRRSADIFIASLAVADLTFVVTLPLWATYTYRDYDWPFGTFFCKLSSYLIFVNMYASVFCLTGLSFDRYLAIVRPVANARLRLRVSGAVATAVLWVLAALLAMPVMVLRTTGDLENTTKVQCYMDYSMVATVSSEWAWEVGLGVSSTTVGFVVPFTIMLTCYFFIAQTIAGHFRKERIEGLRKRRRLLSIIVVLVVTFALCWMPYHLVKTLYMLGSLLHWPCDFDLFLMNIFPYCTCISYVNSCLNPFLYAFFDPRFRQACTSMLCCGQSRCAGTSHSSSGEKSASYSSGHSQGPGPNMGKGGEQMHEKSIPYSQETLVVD
Description: Radioligand competition binding assay, [125I]-apelin-13, HEK-293/APJ membranes. On the set-up: APJ membrane preparations were obtained from transiently transfected HEK293 cells; host or cells: HEK293 cells, transiently transfected; membranes prepared.

The test system of another assay is μ opioid receptor (MOR). As to conditions: ref Markham, 2020; cited from earlier work. The source says:
GPCR ligands were traditionally thought to act equally on all the downstream signaling pathways of the GPCRs, including the multiple signaling pathways mediated by G proteins and β-arrestin.

In assay [1] the target is Apelin receptor (APJ) (UniProt P35414). In words: radioligand binding; competition binding: HEK-293/APJ membrane preparation 20 μg/well, 0.1 nM [125I]-apelin-13, test peptides in 5-fold dilutions starting at 10 µM; 50 mM HEPES pH 7.4, 5 mM MgCl2, 1 mM CaCl2, 0.2% BSA; 30°C, 2 h; Ki calculated from IC50.
Assay [2] has as its target APJ-Renilla luciferase (Rluc) (UniProt P35414).
For assay [3], the target named is Apelin receptor (APJ) (UniProt P35414).
The target of another assay is APJ-Venus (UniProt P35414).
Assay [4] concerns APJ. As to conditions: cited from earlier work. The source says: Elabela (also known as apela or toddler), which has little sequence homology with Apelin, has recently been identified as the second endogenous APJ ligand. […] Elabela is highly expressed during embryogenesis and in adult kidney. Elabela is also derived from a precursor of 54 amino acids.
For assay [5], the system named is APJ. To be noted: ERK1/2-dependent; ref Perjés et al., 2016; cited from earlier work. The source says:
Elabela (also known as apela or toddler), which has little sequence homology with Apelin, has recently been identified as the second endogenous APJ ligand. […] Elabela is highly expressed during embryogenesis and in adult kidney. Elabela is also derived from a precursor of 54 amino acids. Its 13 C-terminal amino acids are highly conserved among all spe ...

Assay [6] concerns pulmonary arterial hypertension (PAH). Set-up: method as in Yang et al., 2017. To be noted: exogenous peptide; ref Yang et al., 2017; cited from earlier work.
The subject of assay [7] is APJ. Set-up: method as in Nyimanu et al., 2019. As to conditions: ref Nyimanu et al., 2019; cited from earlier work.

Description for APJ (Apelin receptor): APJ membrane preparations were obtained from transiently transfected HEK293 cells. HEK293 cells were cultured in complete DMEM (DMEM plus 10% FBS) for 24 h, until they reached at least 70% confluence. Transfection reagent containing 20 μg of the APJ expression plasmid was added, and the cells were incubated for another 24 h. The cells were then harvested into 25 ml homogenization buffer (HB) [250 mM sucrose and 25 mM HEPES (pH 7.3); adjusted to pH 7.5 at 4°C and then filtered] supplemented with 250 μL phenylmethylsulfonyl fluoride (PMSF), homogenized using an IKA T25 Ultra Turrax (24,000 rpm), and centrifuged at 6,025 rpm for 15 min at 4°C. […]
The binding reaction was stopped by rapid filtration through polyethyleneimine (PEI)-coated GF/B plates using a cell harvester, and the plates were washed three times with ice-cold wash buffer [50 mM HEPES (pH 7.4), 500 mM NaCl, and 0.1% BSA; filtered and stored at 4°C]. The filtration plates were dried at 37°C for 2 h; 50 μL scintillation cocktail (Perkin Elmer, Wellesley, MA, United States), was added to each well; and the radioactivity was measured using a Perkin Elmer 1450 MicroBeta TriLux Microplate Scintillation and Luminescence Counter.
The binding reaction was stopped, the plates were washed and dried, the scintillation cocktail was added, and the radioactivity was measured as described above.

As to “LVQPRGSRNGPGPWQGGRRKFRRQRPRLSHKGPMPF [Apelin-36]”, the inhibition constant Ki on APJ (Apelin receptor) worked out at 1.74 nM.

In the case of `COc1ccsc1CNCC[C@@]1(c2ccccn2)CCOC2(CCCC2)C1` [oliceridine], the “signaling bias at opioid receptor (in words)” value in the assay on μ opioid receptor (MOR) was “selective for G protein pathway, and the effect of β - arrestin recruitment is low”.

For Apelin-17 (peptide), the IC50 in the assay with Apelin receptor (APJ) [1] is 5.2 nM. In assay [2], the LogEC50 of the ligand-induced recruitment of GRK2 to APJ (BRET between APJ-Rluc and GRK2-GFP2, HEK293 cells) was -8.19; the LogEC50 of the ligand-induced recruitment of GRK5 to APJ (BRET between APJ-Rluc and GRK5-GFP2, HEK293 cells) is -8.58. Besides, in the assay with Apelin receptor (APJ) [3], the LogEC50 of the ligand-induced interaction between β-arrestin 1 and AP2 (BRET between β-arrestin 1-Rluc and β2-adaptin-EYFP in HEK293 cells co-transfected with APJ, 30 min) was -8.48; the LogEC50 of the ligand-induced interaction between β-arrestin 2 and AP2 (BRET between β-arrestin 2-Rluc and β2-adaptin-EYFP in HEK293 cells co-transfected with APJ, 30 min) was -7.17. In the assay with APJ-Venus, this compound yielded a LogEC50 of the ligand-induced interaction of APJ with β-arrestin 1 (BRET between APJ-Venus and β-arrestin 1-Rluc, HEK293 cells) of -7.9; a LogEC50 of the ligand-induced interaction of APJ with β-arrestin 2 (BRET between APJ-Venus and β-arrestin2-Rluc, HEK293 cells) of -8.33.

Consider Elabela, for which the “APJ signaling (in words)” value in the assay with APJ [4] (ref Peverelli et al., 2014) was “inhibit cyclic AMP (cAMP) production, activate the extracellular signal-regulated kinases (ERK1/2), and mobilize intracellular calcium through APJ internalization”. For the same compound, the “cardiac contractility (in words)” value in the assay on APJ [5] is “increase cardiac contractility in an ERK1/2-dependent manner”. In assay [6], the “effect in PAH in rats (in words)” value is “reduce the severity of cardiopulmonary remodeling and function in PAH in rats”.

For the compound “Apelin-36-[L28A]: G protein biased APJ agonist (LVQPRGSRNGPGPWQGGRRKFRRQRPRASHKGPMPF; Apelin-36; UniProt Q9ULZ1 42-77, looked up, variant L28A)”, in the assay with APJ [7], the “binding to APJ (in words)” value is listed as “nanomolar affinities”. For the same compound, the “signaling bias (in words)” value in the assay with APJ [4] (ref Nyimanu et al., 2019) is “G protein biased APJ agonists”.

Usually Ki stands for the equilibrium dissociation constant of an inhibitor or competing ligand from its target. A low value points to a stronger hold on the target. The IC50 is the midpoint of a concentration-inhibition curve.
